Laboratory results taken from the supplement of paper PMC10307832.

Assays:
Assay in all cases: relative viability (nuclei count vs DMSO), 5 days (fraction); higher = more cells survive
NCI-H1993 = system: NCI-H1993
Outline: (§1)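 Lung cancer cell lines in 1536-well plates were dosed by pin tool the day after seeding, either with one drug alone or with a fixed anchor-drug dose plus five library-drug doses (not always all listed) in √10 steps. After 5 days, cells were fixed and their nuclei stained in one step (final 0.05% Triton X-100, 1% formaldehyde, 1 ug/ml Hoechst), then counted on 4× images. Relative viability is the nuclei count in treated wells divided by that in vehicle wells. Values are medians of duplicate plates.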

LOU-NH91 = system: LOU-NH91
Outline: as §1

NCI-H596 = system: NCI-H596
Outline: as §1

NCI-H2347 = system: NCI-H2347
Outline: as §1

BEN = system: BEN
Outline: as §1

NCI-H2126 = system: NCI-H2126
Outline: as §1

NCI-H441 = system: NCI-H441
Outline: as §1

HCC-44 = system: HCC-44
Outline: as §1

EMC-BAC-2 = system: EMC-BAC-2
Outline: as §1

NCI-H2087 = system: NCI-H2087
Outline: as §1

NCI-H2023 = system: NCI-H2023
Outline: as §1

LCLC-103H = system: LCLC-103H
Outline: as §1

NCI-H23 = system: NCI-H23
Outline: as §1

201T = system: 201T
Outline: as §1

NCI-H3122 = system: NCI-H3122
Outline: as §1

NCI-H838 = system: NCI-H838
Outline: as §1

HARA = system: HARA
Outline: as §1

NCI-H522 = system: NCI-H522
Outline: as §1

NCI-H647 = system: NCI-H647
Outline: as §1

NCI-H650 = system: NCI-H650
Outline: as §1

NCI-H1395 = system: NCI-H1395
Outline: as §1

NCI-H727 = system: NCI-H727
Outline: as §1

Compound: Nc1ccn([C@@H]2O[C@H](CO)[C@@H](O)[C@@H]2O)c(=O)n1 [Cytarabine] + Nc1ncn([C@H]2C[C@H](O)[C@@H](CO)O2)c(=O)n1 [Decitabine] (partner 2 µM)
- relative viability (NCI-H1993; first compound 0.005 µM): 0.584
- relative viability (NCI-H1993; first compound 0.01581 µM): 0.441
- relative viability (NCI-H1993; first compound 0.05 µM): 0.516
- relative viability (NCI-H1993; first compound 0.1581 µM): 0.471
- relative viability (NCI-H1993; first compound 0.5 µM): 0.206
- relative viability (LOU-NH91; first compound 0.005 µM): 0.751
- relative viability (LOU-NH91; first compound 0.01581 µM): 0.742
- relative viability (LOU-NH91; first compound 0.05 µM): 0.696
- relative viability (LOU-NH91; first compound 0.1581 µM): 0.545
- relative viability (LOU-NH91; first compound 0.5 µM): 0.491
- relative viability (NCI-H596; first compound 0.005 µM): 0.858
- relative viability (NCI-H596; first compound 0.01581 µM): 0.916
- relative viability (NCI-H596; first compound 0.05 µM): 0.658
- relative viability (NCI-H596; first compound 0.1581 µM): 0.581
- relative viability (NCI-H596; first compound 0.5 µM): 0.767
- relative viability (NCI-H2347; first compound 0.005 µM): 0.61
- relative viability (NCI-H2347; first compound 0.01581 µM): 0.56
- relative viability (NCI-H2347; first compound 0.05 µM): 0.507
- relative viability (NCI-H2347; first compound 0.1581 µM): 0.537
- relative viability (NCI-H2347; first compound 0.5 µM): 0.573
- relative viability (BEN; first compound 0.005 µM): 0.675
- relative viability (BEN; first compound 0.01581 µM): 0.558
- relative viability (BEN; first compound 0.05 µM): 0.43
- relative viability (BEN; first compound 0.1581 µM): 0.345
- relative viability (BEN; first compound 0.5 µM): 0.31
- relative viability (NCI-H2126; first compound 0.005 µM): 0.597
- relative viability (NCI-H2126; first compound 0.01581 µM): 0.518
- relative viability (NCI-H2126; first compound 0.05 µM): 0.514
- relative viability (NCI-H2126; first compound 0.1581 µM): 0.457
- relative viability (NCI-H2126; first compound 0.5 µM): 0.429
- relative viability (NCI-H441; first compound 0.005 µM): 0.289
- relative viability (NCI-H441; first compound 0.01581 µM): 0.186
- relative viability (NCI-H441; first compound 0.05 µM): 0.268
- relative viability (NCI-H441; first compound 0.1581 µM): 0.182
- relative viability (NCI-H441; first compound 0.5 µM): 0.153
- relative viability (HCC-44; first compound 0.005 µM): 1.04
- relative viability (HCC-44; first compound 0.01581 µM): 0.941
- relative viability (HCC-44; first compound 0.05 µM): 0.87
- relative viability (HCC-44; first compound 0.1581 µM): 0.748
- relative viability (HCC-44; first compound 0.5 µM): 0.737
- relative viability (EMC-BAC-2; first compound 0.005 µM): 0.943
- relative viability (EMC-BAC-2; first compound 0.01581 µM): 0.836
- relative viability (EMC-BAC-2; first compound 0.05 µM): 0.597
- relative viability (EMC-BAC-2; first compound 0.1581 µM): 0.315
- relative viability (EMC-BAC-2; first compound 0.5 µM): 0.332
- relative viability (NCI-H2087; first compound 0.005 µM): 0.316
- relative viability (NCI-H2087; first compound 0.01581 µM): 0.225
- relative viability (NCI-H2087; first compound 0.05 µM): 0.303
- relative viability (NCI-H2087; first compound 0.1581 µM): 0.109
- relative viability (NCI-H2087; first compound 0.5 µM): 0.133
- relative viability (NCI-H2023; first compound 0.005 µM): 0.169
- relative viability (NCI-H2023; first compound 0.01581 µM): 0.116
- relative viability (NCI-H2023; first compound 0.05 µM): 0.114
- relative viability (NCI-H2023; first compound 0.1581 µM): 0.0751
- relative viability (NCI-H2023; first compound 0.5 µM): 0.0656
- relative viability (LCLC-103H; first compound 0.005 µM): 0.71
- relative viability (LCLC-103H; first compound 0.01581 µM): 0.734
- relative viability (LCLC-103H; first compound 0.05 µM): 0.73
- relative viability (LCLC-103H; first compound 0.1581 µM): 0.751
- relative viability (LCLC-103H; first compound 0.5 µM): 0.724
- relative viability (NCI-H23; first compound 0.005 µM): 0.296
- relative viability (NCI-H23; first compound 0.01581 µM): 0.267
- relative viability (NCI-H23; first compound 0.05 µM): 0.274
- relative viability (NCI-H23; first compound 0.1581 µM): 0.195
- relative viability (NCI-H23; first compound 0.5 µM): 0.193
- relative viability (201T; first compound 0.005 µM): 0.847
- relative viability (201T; first compound 0.01581 µM): 0.853
- relative viability (201T; first compound 0.05 µM): 0.802
- relative viability (201T; first compound 0.1581 µM): 0.72
- relative viability (201T; first compound 0.5 µM): 0.668
- relative viability (NCI-H3122; first compound 0.005 µM): 0.459
- relative viability (NCI-H3122; first compound 0.01581 µM): 0.383
- relative viability (NCI-H3122; first compound 0.05 µM): 0.374
- relative viability (NCI-H3122; first compound 0.1581 µM): 0.228
- relative viability (NCI-H3122; first compound 0.5 µM): 0.26
- relative viability (NCI-H838; first compound 0.005 µM): 0.476
- relative viability (NCI-H838; first compound 0.01581 µM): 0.407
- relative viability (NCI-H838; first compound 0.05 µM): 0.427
- relative viability (NCI-H838; first compound 0.1581 µM): 0.311
- relative viability (NCI-H838; first compound 0.5 µM): 0.274
- relative viability (HARA; first compound 0.005 µM): 0.448
- relative viability (HARA; first compound 0.01581 µM): 0.236
- relative viability (HARA; first compound 0.05 µM): 0.347
- relative viability (HARA; first compound 0.1581 µM): 0.173
- relative viability (HARA; first compound 0.5 µM): 0.18
- relative viability (NCI-H522; first compound 0.005 µM): 0.653
- relative viability (NCI-H522; first compound 0.01581 µM): 0.608
- relative viability (NCI-H522; first compound 0.05 µM): 0.628
- relative viability (NCI-H522; first compound 0.1581 µM): 0.484
- relative viability (NCI-H522; first compound 0.5 µM): 0.335
- relative viability (NCI-H647; first compound 0.005 µM): 0.307
- relative viability (NCI-H647; first compound 0.01581 µM): 0.239
- relative viability (NCI-H647; first compound 0.05 µM): 0.258
- relative viability (NCI-H647; first compound 0.1581 µM): 0.108
- relative viability (NCI-H647; first compound 0.5 µM): 0.0719
- relative viability (NCI-H650; first compound 0.005 µM): 0.326
- relative viability (NCI-H650; first compound 0.01581 µM): 0.255
- relative viability (NCI-H650; first compound 0.05 µM): 0.247
- relative viability (NCI-H650; first compound 0.1581 µM): 0.152
- relative viability (NCI-H650; first compound 0.5 µM): 0.152
- relative viability (NCI-H1395; first compound 0.005 µM): 0.634
- relative viability (NCI-H1395; first compound 0.01581 µM): 0.688
- relative viability (NCI-H1395; first compound 0.05 µM): 0.529
- relative viability (NCI-H1395; first compound 0.1581 µM): 0.368
- relative viability (NCI-H1395; first compound 0.5 µM): 0.364
- relative viability (NCI-H727; first compound 0.005 µM): 0.964
- relative viability (NCI-H727; first compound 0.01581 µM): 0.713
- relative viability (NCI-H727; first compound 0.05 µM): 0.443
- relative viability (NCI-H727; first compound 0.1581 µM): 0.474
- relative viability (NCI-H727; first compound 0.5 µM): 0.522
